The target of one experiment is T1, human 5HT2a receptors (Homo sapiens, UniProt P28223).
T1 construct: expressed in transfected cells; host or cells: CHO K1 cells
Description: Competition radioligand binding, 5-HT2A. The method in brief: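 Human 5-HT1a and 5-HT2a receptors were expressed in CHO K1 cell membranes. Competition binding was stopped by filtration onto PEI-soaked GF/C filters and counted by liquid scintillation. IC50 values and Hill slopes came from nonlinear regression, and Ki was calculated by Cheng–Prusoff.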

Experiment [1] concerns the target T2, human 5-HT7B (h5-HT7b) receptors (Homo sapiens, UniProt P34969).
T2 construct: expressed in transfected cells
The experiment in a line: Competition radioligand binding, h5-HT7b. The method, boiled down:
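Membranes from HEK 293 cells stably expressing human 5-HT7b incubated with ~0.2 nM [3H]5-CT and varying compound 2 h at 37 °C in HEPES buffer pH 7.4 with pargyline. Nonspecific binding with 1 μM 5-HT; filtration, scintillation counting; IC50 by nonlinear regression converted to Ki via Cheng–Prusoff.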

Experiment [2] concerns the target T3, human 5-HT6 (h5-HT6) receptors (Homo sapiens, UniProt P50406).
T3 construct: purchased Receptor Biology, Inc. (Beltsville, Md.); host or cells: HEK-293 cells
Description: Competition radioligand binding, h5-HT6.

In experiment [3] the target is T4, human D2S dopamine (hD2S-DA) receptors (Homo sapiens, UniProt P14416).
T4 construct: purchased Receptor Biology, Inc. (Beltsville, Md.); host or cells: A9 L cells
The experiment in a line: Competition radioligand binding, hD2S dopamine.

Another experiment addresses T5, human 5-HT1a receptors (Homo sapiens, UniProt P08908).
T5 construct: expressed in transfected cells; host or cells: CHO K1 cells
T5 sequence (P08908 1-422): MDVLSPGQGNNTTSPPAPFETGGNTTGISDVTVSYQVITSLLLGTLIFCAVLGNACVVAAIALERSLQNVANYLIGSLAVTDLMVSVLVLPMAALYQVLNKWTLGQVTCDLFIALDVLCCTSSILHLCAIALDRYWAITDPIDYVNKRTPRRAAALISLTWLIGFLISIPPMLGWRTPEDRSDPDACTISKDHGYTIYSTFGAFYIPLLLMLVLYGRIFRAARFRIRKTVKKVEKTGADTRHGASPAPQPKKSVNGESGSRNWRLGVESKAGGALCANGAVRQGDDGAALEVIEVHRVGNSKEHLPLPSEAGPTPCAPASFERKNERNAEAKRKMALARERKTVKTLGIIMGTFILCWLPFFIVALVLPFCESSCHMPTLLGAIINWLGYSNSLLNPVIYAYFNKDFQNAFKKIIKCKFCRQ
Description: Competition radioligand binding, h5-HT1a. Here is the method: Cells and Membrane Preparation: HEK 293 cells stably expressing human 5-HT7B (h5-HT7b) receptors were grown in Dulbecco's Modified Eagle's Medium (DMEM; Gibco) without sodium pyruvate and containing 4.5 g/L glucose, L-glutamine/penicillin-streptomycin (Gemini), 10% fetal bovine serum and 250 mg/l of the antibiotic, G418 (Geneticin) as previously described (Jasper, J. R., Kosaka, A., To, Z. P., Chang, D. J. and Eglen, R. M. (1997) Cloning, expression and pharmacology of a truncated splice variant of the human 5-ht7 receptor (h5-ht7b). Br. J. Pharmacol. 122(1):126-132.). Cell pellets were homogenized in approximately 50 mL of homogenization buffer (buffer A) containing: 50 mM Tris (pH 7.4), 2 mM EGTA, 0.32 M sucrose, 10 μM PMSF, 1 μg/mL leupeptin, 5 μg/mL Pepstatin A, and 5 μg/mL aprotinin using an UltraTurax homogenizer (Tekmar Company, Cincinnati, Ohio) at 80% maximum setting three times for 10 sec. Cell pellets were centrifuged at 4° C. at 1,500×g for 10 min in a Beckman GS-6R centrifuge. Pellets were resuspended in buffer A, homogenized and centrifuged as described above. Pooled supernatants were transferred to centrifuge bottles and centrifuged at 4° C. at 20,000×g for 30 min in a Beckman J2-HS centrifuge. Cell pellets were resuspended in buffer A and were centrifuged at 4° C. at 20,000×g for 30 min. Cell pellets were resuspended in buffer A and stored at −70° C. in aliquots of 2.5 mg/mL total membrane protein. Total membrane protein was assessed utilizing a BCA kit (Pierce; Rockford, Ill.). Membranes containing human 5-HT1a or 5HT2a receptors expressed in CHO K1 cells were prepared as described above.
Radioligand Binding Assays: For 5-HT7 saturation binding experiments, HEK-293 cell membranes expressing h5-HT7 receptors (5-10 μg membrane protein/well) were incubated in duplicate with [^3H]5-CT (approximately 0.2 nM) in binding assay buffer containing: 50 mM HEPES (pH 7.4), 0.5 mM EDTA, 10 mM MgCl2, 10 μM pargyline to inhibit monoamine oxidase activity, and 0.1% sodium ascorbate, in a final volume of 200 μL in 96-well polypropylene plates for 2 hours at 37° C. Nonspecific binding was determined by incubating membranes with 1 μM 5-HT. All radioligand binding assays were stopped by rapid filtration onto 96-well GF/C filter plates (Packard) soaked in 0.1% polyethylenimine. Filters were washed three times with ice-cold phosphate-buffered saline (PBS) wash buffer containing 50 mM NaPO4 (pH 7.4), 0.9% NaCl, 2 mM MgCl2 and 0.02% NaN3. The filters were then counted using liquid scintillation in a Packard Topcount scintillation counter.
Data Analysis: Radioligand binding experiments were analyzed with Prism™ (Graphpad, San Diego, Calif.), a computer graphics and statistics program. IC50 values and Hill slopes for compounds were generated by nonlinear regression using Prism™. Values for Ki calculated from IC50 values by the Cheng and Prussoff equation (Cheng, Y. and Prusoff, W. H., (1973), “Relationship between the inhibition constant (Ki) and the concentration of inhibitor which causes 50 per cent inhibition (I50) of an enzymatic reaction.” Biochemical Pharmacol. 22:3099-3108).

Where [4] appears, read: [3H]Ketanserin, membranes of CHO K1 cells, read-out: Ki 5-HT2A.
[5] abbreviates: [3H]5-CT, membranes of HEK 293 cells, read-out: Ki 5-HT7.
The mark [6] stands for this setting: [3H]LSD, membranes of HEK-293 cells, read-out: Ki 5-HT6.
[7] abbreviates: [3H]Spiperone, membranes of A9 L cells, read-out: Ki D2.
Where [8] appears, read: [3H]5-CT, membranes of CHO K1 cells, read-out: Ki 5-HT1A.

pKi: −log10 of the molar value. Read-outs that look alike come from different tables or passages of the source.

In patent US20040044037A1, “Amidino-urea serotonin receptor ligands and compositions, their pharmaceutical uses, and methods for their snythesis” (priority 2003, published 2004) one finds Ki data, which are given here for 14 compounds.

T4 sequence (P14416 1-414 isoform P14416-2): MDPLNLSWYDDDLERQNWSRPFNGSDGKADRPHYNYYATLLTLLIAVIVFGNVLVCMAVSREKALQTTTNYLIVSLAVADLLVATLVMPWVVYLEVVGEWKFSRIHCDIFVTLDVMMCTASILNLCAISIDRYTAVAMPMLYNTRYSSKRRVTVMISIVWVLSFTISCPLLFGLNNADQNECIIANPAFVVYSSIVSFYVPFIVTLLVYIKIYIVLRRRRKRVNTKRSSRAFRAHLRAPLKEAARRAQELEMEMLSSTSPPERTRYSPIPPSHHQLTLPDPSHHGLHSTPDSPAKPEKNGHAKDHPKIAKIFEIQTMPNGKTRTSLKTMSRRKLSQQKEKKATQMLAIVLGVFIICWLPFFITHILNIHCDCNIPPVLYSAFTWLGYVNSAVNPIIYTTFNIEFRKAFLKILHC
T2 sequence (P34969 1-432 limits assumed): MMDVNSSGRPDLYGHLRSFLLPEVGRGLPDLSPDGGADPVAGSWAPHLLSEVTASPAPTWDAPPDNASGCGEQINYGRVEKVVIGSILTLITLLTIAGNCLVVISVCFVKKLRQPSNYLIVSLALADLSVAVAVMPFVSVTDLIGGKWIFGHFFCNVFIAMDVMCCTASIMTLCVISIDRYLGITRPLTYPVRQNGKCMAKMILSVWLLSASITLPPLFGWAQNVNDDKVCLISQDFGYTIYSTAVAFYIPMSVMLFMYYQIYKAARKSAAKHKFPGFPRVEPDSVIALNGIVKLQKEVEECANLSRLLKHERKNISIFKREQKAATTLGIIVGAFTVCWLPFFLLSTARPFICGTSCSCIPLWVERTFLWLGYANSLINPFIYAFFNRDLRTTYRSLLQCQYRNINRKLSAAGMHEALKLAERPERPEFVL
T1 sequence (P28223 whole entry): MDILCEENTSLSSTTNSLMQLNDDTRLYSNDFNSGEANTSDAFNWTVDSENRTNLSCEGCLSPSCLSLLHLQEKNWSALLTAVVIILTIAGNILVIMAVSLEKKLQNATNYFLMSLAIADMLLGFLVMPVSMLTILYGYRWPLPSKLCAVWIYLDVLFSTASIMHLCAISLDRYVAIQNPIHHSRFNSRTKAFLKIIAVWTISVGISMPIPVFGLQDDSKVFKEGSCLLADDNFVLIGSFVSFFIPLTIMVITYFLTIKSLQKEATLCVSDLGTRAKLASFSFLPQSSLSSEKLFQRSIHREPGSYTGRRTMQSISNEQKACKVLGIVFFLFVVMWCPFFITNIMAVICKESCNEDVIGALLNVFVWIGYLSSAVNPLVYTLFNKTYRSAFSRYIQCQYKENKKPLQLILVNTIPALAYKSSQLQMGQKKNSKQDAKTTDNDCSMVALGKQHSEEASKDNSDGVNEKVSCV
T3 sequence (P50406 whole entry): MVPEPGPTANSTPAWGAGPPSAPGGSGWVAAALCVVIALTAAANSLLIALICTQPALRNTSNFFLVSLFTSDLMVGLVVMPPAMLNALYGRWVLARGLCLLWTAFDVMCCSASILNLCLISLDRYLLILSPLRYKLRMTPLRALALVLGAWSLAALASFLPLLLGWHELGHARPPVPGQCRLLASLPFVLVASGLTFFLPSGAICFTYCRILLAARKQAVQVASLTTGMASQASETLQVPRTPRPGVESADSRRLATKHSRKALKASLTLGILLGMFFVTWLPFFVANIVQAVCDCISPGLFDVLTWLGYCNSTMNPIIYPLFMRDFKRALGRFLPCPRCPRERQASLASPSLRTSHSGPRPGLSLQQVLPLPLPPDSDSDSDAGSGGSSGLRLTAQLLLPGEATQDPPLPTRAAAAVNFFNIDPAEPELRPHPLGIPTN

Take `COc1ccc(C(C)=O)cc1CN1CCC(CNC(=O)NC(=N)NCc2cccc3ccccc23)CC1` [Example 63, 1-(5-Acetyl-2-methoxybenzyl)4({[({imino[(1-naphthylmethyl)amino]methyl}amino)carbonyl]amino}methyl)piperidine]: the pKi on human 5HT2a receptors (setting [4]) was 8.74; in experiment [1] (setting [5]) it was 7.41; in experiment [2] (setting [6]), 5.52; in experiment [3] (setting [7]) it was 5.75; on human 5-HT1a receptors (setting [8]) it was 6.47.

As for `Cc1ccccc1CN1CCC(CNC(=O)NC(=N)NCc2cccc3ccccc23)CC1` [Example 65, 4-({[({Imino[(1-naphthylmethyl)amino]methyl}amino)carbonyl]amino}methyl)-1-(2-methylbenzyl)piperidine], the pKi at human 5HT2a receptors (setting [4]) was 8.02; in experiment [1] (setting [5]), 7.54; in experiment [2] (setting [6]), 5.38; in experiment [3] (setting [7]), 5.60; at human 5-HT1a receptors (setting [8]), 6.16.

As to `N=C(NCc1cccc2ccccc12)NC(=O)NCC1CCN(Cc2ccc3c(c2)OCO3)CC1` [Example 66, 1-(1,3-Benzodioxol-5-ylmethyl)-4-({[({imino[(1-naphthylmethyl)amino]methyl}amino)carbonyl]amino}methyl)piperidine], the pKi was 8.38 on human 5HT2a receptors (setting [4]); 7.51 in experiment [1] (setting [5]); 5.43 in experiment [2] (setting [6]); 5.80 in experiment [3] (setting [7]); 6.37 on human 5-HT1a receptors (setting [8]).

Regarding `N=C(NCc1cccc2ccccc12)NC(=O)NCC1CCN(Cc2ccc(F)cc2F)CC1` [Example 67], the pKi on human 5HT2a receptors (setting [4]) is 8.19; in experiment [1] (setting [5]) it was 7.49; in experiment [2] (setting [6]) it was 5.54; in experiment [3] (setting [7]) it was < 5.60; at human 5-HT1a receptors (setting [8]), 6.30.

For `COc1ccc(CN2CCC(CNC(=O)NC(=N)NCc3cccc4ccccc34)CC2)cc1C` [Example 68, 4-({[({Imino[(1-naphthylmethyl)amino]methyl}amino)carbonyl]amino}methyl)-1-(4-methoxy-3-methylbenzyl)piperidine], the pKi at human 5HT2a receptors (setting [4]) was 8.00; in experiment [1] (setting [5]), 7.74; in experiment [2] (setting [6]), 6.04; in experiment [3] (setting [7]), 5.81; at human 5-HT1a receptors (setting [8]) it was 5.77.

Turning to `CC(=O)Nc1ccc(CN2CCC(CNC(=O)NC(=N)NCc3cccc4ccccc34)CC2)cc1` [Example 70, N-(4-{[4-({[({Imino[(1-naphthylmethyl)amino]methyl}amino)carbonyl]amino}methyl)-1-piperidinyl]methyl}phenyl)acetamide], the pKi was 9.26 on human 5HT2a receptors (setting [4]); 7.80 in experiment [1] (setting [5]); 5.61 in experiment [2] (setting [6]); 5.61 in experiment [3] (setting [7]); 6.96 on human 5-HT1a receptors (setting [8]).

On to `COc1ccc(CN2CCC(CNC(=O)NC(=N)NCc3cccc4ccccc34)CC2)cc1` [Example 71, 4-({[({Imino[(1-naphthylmethyl)amino]methyl}amino)carbonyl]amino}methyl)-1-(4-methoxybenzyl)piperidine], for which the pKi at human 5HT2a receptors (setting [4]) was 8.89; in experiment [1] (setting [5]), 7.72; in experiment [2] (setting [6]), 5.86; in experiment [3] (setting [7]), 5.83; on human 5-HT1a receptors (setting [8]) it was 6.22.

For the compound `Cc1cccc(CN2CCC(CNC(=O)NC(=N)NCc3cccc4ccccc34)CC2)c1` [Example 72, 4-({[({Imino[(1-naphthylmethyl)amino]methyl}amino)carbonyl]amino}methyl)-1-(3-methylbenzyl)piperidine], the pKi at human 5HT2a receptors (setting [4]) was 8.28; in experiment [1] (setting [5]), 7.82; in experiment [2] (setting [6]) it was 6.06; in experiment [3] (setting [7]), 6.06; on human 5-HT1a receptors (setting [8]) it was 6.38.

As to `N=C(NCc1cccc2ccccc12)NC(=O)NCC1CCN(Cc2cccc(Cl)c2)CC1` [Example 73, 1-(3-Chlorobenzyl)-4-({[({imino[(1-naphthylmethyl)amino]methyl}amino)carbonyl]amino}methyl)piperidine], the negative-log Ki (pKi) on human 5HT2a receptors (setting [4]) was 8.06; in experiment [1] (setting [5]) it was 7.68; in experiment [2] (setting [6]), 6.12; in experiment [3] (setting [7]) it was 6.08; at human 5-HT1a receptors (setting [8]), 6.41.

For `N=C(NCc1cccc2ccccc12)NC(=O)NCC1CCN(Cc2cc(F)cc(F)c2)CC1` [Example 74, 1-(3,5-Difluorobenzyl)-4-({[({imino[(1-naphthylmethyl)amino]methyl}amino)carbonyl]amino}methyl)piperidine], the pKi is 8.39 on human 5HT2a receptors (setting [4]); 7.55 in experiment [1] (setting [5]); 5.72 in experiment [2] (setting [6]); 5.87 in experiment [3] (setting [7]); 6.52 on human 5-HT1a receptors (setting [8]).

Turning to `N=C(NCc1cccc2ccccc12)NC(=O)NCC1CCN(Cc2ccccc2)CC1` [Example 75, 1-Benzyl-4-({[({imino[(1-naphthylmethyl)amino]methyl}amino)carbonyl]amino}methyl)piperidine], the pKi on human 5HT2a receptors (setting [4]) was 8.31; in experiment [1] (setting [5]) it was 7.54; in experiment [2] (setting [6]), 5.40; in experiment [3] (setting [7]), 5.64; on human 5-HT1a receptors (setting [8]) it was 6.47.

Consider `Cc1ccc(CN2CCC(CNC(=O)NC(=N)NCc3cccc4ccccc34)CC2)cc1` [Example 76, 4-({[({Imino[(1-naphthylmethyl)amino]methyl}amino)carbonyl]amino}methyl)-1-(4-methylbenzyl)piperidine], for which the pKi was 8.17 on human 5HT2a receptors (setting [4]); 7.34 in experiment [1] (setting [5]); 5.47 in experiment [2] (setting [6]); 5.72 in experiment [3] (setting [7]); 6.26 on human 5-HT1a receptors (setting [8]).

As for `N=C(NCc1cccc2ccccc12)NC(=O)NCC1CCN(Cc2ccc(F)cc2)CC1` [Example 77, 1-(4-Fluorobenzyl)-4-({[({imino[(1-naphthylmethyl)amino]methyl}amino)carbonyl]amino}methyl)piperidine], the pKi at human 5HT2a receptors (setting [4]) is 8.02; in experiment [1] (setting [5]), 7.72; in experiment [2] (setting [6]), 5.47; in experiment [3] (setting [7]), 5.90; on human 5-HT1a receptors (setting [8]), 5.96.

`CCOc1ccccc1CNC(=N)NC(=O)N1CCC(Nc2ccccc2)CC1` [Example 78, N-[(4-Anilino-1-piperidinyl)carbonyl]-N′-(2-ethoxybenzyl)guanidine]: the pKi at human 5HT2a receptors was 6.77; in experiment [1], 7.47; in experiment [2] it was 5.16; in experiment [3], < 5.60; at human 5-HT1a receptors it was < 5.40.
